According to PMC5607265, “Design, synthesis and structure-activity relationship of 3,6-diaryl-7H-[1,2,4]triazolo[3,4-b][1,3,4]thiadiazines as novel tubulin inhibitors” (Scientific Reports, 2017):

Assays:
[1] = test system: fibrosarcoma HT-1080 cells; assay: MTT antiproliferative assay, HT-1080; type: cell-based, human; details: Homo sapiens, HT-1080; MTT assay, 24 h exposure, triplicate; read-out: IC50 HT-1080
Description: (§1) The SGC-7901, A549 and HT-1080 cell lines were purchased from the American Type Culture Collection (ATCC, Manassas, VA, USA). […] Briefly, approximately 3 × 10^4 cells were seeded in a 96-well plate. After 24 h of incubation at 37 °C, cells were exposed to compounds of differing concentrations for 24 h. After treatment, cells were washed with 1X PBS followed by addition of 100 µL of 0.05% MTT reagent to each well, followed by incubation for 4 h at 37 °C. After incubation, the supernatant from each well was carefully removed and the formazan crystals were dissolved in 100 µL of DMSO. The colour density was measured spectrophotometrically at 490 nm using a microplate reader (SpectraMax Plus384, Molecular Devices Corp., USA). The data were calculated and plotted as percent viability compared to control.
as §1

[2] = test system: gastric adenocarcinoma SGC-7901 cells; assay: MTT antiproliferative assay, SGC-7901; type: cell-based, human; details: Homo sapiens, SGC-7901; MTT assay, 24 h exposure, triplicate; read-out: IC50 SGC-7901
Description: as §1, §1

[3] = test system: lung adenocarcinoma A549 cells; assay: MTT antiproliferative assay, A549; type: cell-based, human; details: Homo sapiens, A549; MTT assay, 24 h exposure, triplicate; read-out: IC50 A549
Description: as §1, §1

Structure (SMILES): COc1ccc(-c2nnc3n2N=C(c2ccc(C(F)(F)F)cc2)CS3)c(OC)c1OC [Compound 4e, 3-(2,3,4-Trimethoxyphenyl)-6-(4-(trifluoromethyl)phenyl)-7H-[1,2,4]triazolo[3,4-b][1,3,4]thiadiazine]
- melting point: 95 to 96 °C
- IC50 [1]: 10.5 µM
- IC50 [2]: 2.42 µM
- IC50 [3]: 85.4 µM

Structure (SMILES): COc1ccc(C2=Nn3c(nnc3-c3ccc(OC)c(OC)c3OC)SC2)cc1F [Compound 4h, 3-(2,3,4-Trimethoxyphenyl)-6-(3-fluoro-4-methoxyphenyl)-7H-[1,2,4]triazolo[3,4-b][1,3,4]thiadiazine]
- melting point: 92 to 94 °C
- IC50 [1]: 51.9 µM
- IC50 [2]: 43.2 µM
- IC50 [3]: 16.3 µM

Structure (SMILES): COc1ccc(-c2nnc3n2N=C(c2ccc(OC)c([N+](=O)[O-])c2)CS3)cc1 [Compound 6j, 3-(4-Methoxyphenyl)-6-(3-nitro-4-methoxyphenyl)-7H-[1,2,4]triazolo[3,4-b][1,3,4]thiadiazine]
- melting point: 97 to 99 °C
- IC50 [1]: 2.32 µM
- IC50 [2]: 8.04 µM
- IC50 [3]: 5.68 µM

Structure (SMILES): COc1ccc(C2=Nn3c(nnc3-c3cc(OC)c(OC)c(OC)c3)SC2)cc1F [Compound 5e, 3-(3,4,5-Trimethoxyphenyl)-6-(3-fluoro-4-methoxyphenyl)-7H-[1,2,4]triazolo[3,4-b][1,3,4]thiadiazine]
- melting point: 115 to 118 °C
- IC50 [1]: 1.31 µM
- IC50 [2]: 4.28 µM
- IC50 [3]: 3.21 µM

Structure (SMILES): COc1cc(-c2nnc3n2N=C(c2ccc(C(F)(F)F)cc2)CS3)cc(OC)c1OC [Compound 5c, 3-(3,4,5-Trimethoxyphenyl)-6-(4-(trifluoromethyl)phenyl)-7H-[1,2,4]triazolo[3,4-b][1,3,4]thiadiazine]
- melting point: 105 to 106 °C
- IC50 [1]: 0.75 µM
- IC50 [2]: 1.17 µM
- IC50 [3]: 7.72 µM

Structure (SMILES): COc1cccc(-c2nnc3n2N=C(c2ccc(OC)c([N+](=O)[O-])c2)CS3)c1 [Compound 6h, 3-(3-Methoxyphenyl)-6-(3-nitro-4-methoxyphenyl)-7H-[1,2,4]triazolo[3,4-b][1,3,4]thiadiazine]
- melting point: 207 to 208 °C
- IC50 [1]: 1.91 µM
- IC50 [2]: 2.55 µM
- IC50 [3]: 4.2 µM

Structure (SMILES): COc1ccc(-c2nnc3n2N=C(c2ccc(OC)c([N+](=O)[O-])c2)CS3)cc1OC [Compound 6f, 3-(3,4-Dimethoxyphenyl)-6-(3-nitro-4-methoxyphenyl)-7H-[1,2,4]triazolo[3,4-b][1,3,4]thiadiazine]
- melting point: 190 to 192 °C
- IC50 [1]: 3.32 µM
- IC50 [2]: 5.04 µM
- IC50 [3]: 3.68 µM

Structure (SMILES): COc1ccc(-c2nnc3n2N=C(c2ccc(Cl)cc2)CS3)c(OC)c1OC [Compound 4b, 3-(2,3,4-Trimethoxyphenyl)-6-(4-chlorophenyl)-7H-[1,2,4]triazolo[3,4-b][1,3,4]thiadiazine]
- melting point: 88 to 90 °C
- IC50 [1]: 24.7 µM
- IC50 [2]: 24.5 µM
- IC50 [3]: 23.2 µM

Structure (SMILES): COc1ccc(C2=Nn3c(nnc3-c3cc(OC)c(OC)c(OC)c3)SC2)cc1[N+](=O)[O-] [Compound 5f, 3-(3,4,5-Trimethoxyphenyl)-6-(3-nitro-4-methoxyphenyl)-7H-[1,2,4]triazolo[3,4-b][1,3,4]thiadiazine]
- melting point: 212 to 213 °C
- IC50 [1]: 5.76 µM
- IC50 [2]: 11.3 µM
- IC50 [3]: 8.88 µM

Structure (SMILES): COc1ccc(C2=Nn3c(nnc3-c3ccc(OC)c(OC)c3OC)SC2)cc1 [Compound 4f, 3-(2,3,4-Trimethoxyphenyl)-6-(4-methoxyphenyl)-7H-[1,2,4]triazolo[3,4-b][1,3,4]thiadiazine]
- melting point: 92 to 95 °C
- IC50 [1]: 61.4 µM
- IC50 [2]: 62.7 µM
- IC50 [3]: 50.2 µM

Structure (SMILES): COc1ccc(C2=Nn3c(nnc3-c3cc(OC)c(OC)c(OC)c3)SC2)cc1N [Compound 5g, 3-(3,4,5-Trimethoxyphenyl)-6-(3-amino-4-methoxyphenyl)-7H-[1,2,4]triazolo[3,4-b][1,3,4]thiadiazine]
- melting point: 112 to 115 °C
- IC50 [1]: 0.18 µM
- IC50 [2]: 1.25 µM
- IC50 [3]: 1.08 µM
